# Experimental data as given in patent US7585875B2, “Substituted pyrazolo[1,5-a]pyridine compounds and their methods of use” (Avigen, Inc., priority 2006, dated 2009).
# Structures can show the parent of a compound that is named as a salt. Where two headings read alike, the source gives them in different places.
# How the values were obtained:
# [1] = tested on: mechanical allodynia after chronic constriction injury (CCI) to the sciatic nerve; test: Mechanical allodynia by response to von Frey fibers, rat chronic constriction injury (CCI) model; type: in vivo, male Sprague-Dawley rats; conditions: 2 hr post dosing
# From the text: Chronic Constriction Injury: Heat and cold allodynia responses as well as mechanical allodynia sensations can be evaluated as described below in rats having a chronic constriction injury (CCI). A unilateral mononeuropathy is produced in rats using the chronic constriction injury model described in Bennett et al., Pain (1988) 33:87-107. CCI is produced in anesthetized rats as follows. The lateral aspect of each rat's hind limb is shaved and scrubbed with Nolvasan. Using aseptic techniques, an incision is made on the lateral aspect of the hind limb at the mid-thigh level. The biceps femoris is bluntly dissected to expose the sciatic nerve. On the right hind limb of each rat, four loosely tied ligatures (for example, Chromic gut 4.0; Ethicon, Johnson and Johnson, Somerville, N.J.) are made around the sciatic nerve approximately 1-2 mm apart. On the left side of each rat, an identical dissection is performed except that the sciatic nerve is not ligated (sham). The muscle is closed with a continuous suture pattern with, e.g., 4-0 Vicryl (Johnson and Johnson, Somerville, N.J.) and the overlying skin is closed with wound clips. The rats are ear-tagged for identification purposes and returned to animal housing.
# To induce allodynia, male Sprague-Dawley rats underwent chronic constriction injury (CCI) to the sciatic nerve as described by Bennett and Xie, Pain 1988; 33(1):87-107. The plantar surface of the hind paws was stimulated with von Frey filaments (Stoelting) to induce a withdrawal response by blinded personnel. The bending force of fiber required to induce a 50% withdrawal response was calculated following CCI surgery (pre-dosing baseline). N=5-6 allodynic rats received a single intraperitoneal administration of test compound or vehicle. Two hours post-dosing, 50% paw withdrawal threshold was determined again by blinded testers using von Frey filaments. The change in 50% withdrawal threshold relative to pre-dosing baseline is reported in Table 2 for various substituted pyrazolo[1,5-a]pyridine compounds of the invention.
# [2] = molecular target: phosphodiesterase (PDE) enzyme derived from bovine brain; test: Inhibition of PDE (PDELight kit, cAMP substrate); type: biochemical; conditions: PDE from brain extract, cAMP as substrate
# Method: In a 96-well plate, phosphodiesterase (PDE) enzyme (0.5-1 mU/well) derived from bovine brain (Sigma) was combined with 5 uM cAMP substrate (Sigma). Test compounds (0-200 uM) or vehicle (0.5% DMSO) were added to the enzyme/substrate and incubated for 1 hour. Using a PDELight® kit (Cambrex), the amount of AMP produced in the reaction from the hydrolysis of cAMP was quantified using PDELight AMP Detection Reagent which converts the AMP directly to ATP. The assay uses luciferase, which catalyses the formation of light from the newly formed ATP and luciferin. The luminescence was read on a Victor Light 1420 luminometer. IC50 calculations were plotted using a nonlinear regression curve fit.
# [3] = tested on: TNF-α production in LPS-stimulated human peripheral blood mononuclear cells; test: Inhibition of LPS-stimulated TNF-α release from PBMCs; type: cell-based; conditions: PBMC
# Method: (§1) IC50 values were determined for representative compounds of the invention based upon their ability to inhibit LPS-induced cytokine production in human peripheral blood mononuclear cells. Human PBMCs (peripheral blood mononuclear cells) were isolated over a Ficoll gradient from buffy coats obtained from the local Red Cross. 10^6 PBMC cells/well were seeded in 24-well tissue culture plates in RPMI 1640 medium supplemented with 10% human serum, hepes buffer and sodium pyruvate. The cells were treated with 0.1% DMSO (vehicle) or test compounds (1, 10, and 100 uM) 30 minutes prior to activation with LPS (lipopolysaccharide) (E. Coli) at 10 ng/mL. 6-10 hours post LPS stimulation the culture supernatants were collected and levels of cytokines TNF-α and IL-1β were quantified by ELISA (R&D Systems) and/or Luminex (Linco Diagnostics). IC50 calculations were plotted using a nonlinear regression curve fit for exemplary substituted pyrazolo[1,5-a]pyridine compounds of the invention; results are provided in Table 2.
# [4] = tested on: IL-1β production in LPS-stimulated human peripheral blood mononuclear cells; test: Inhibition of LPS-stimulated IL-1β release from PBMCs; type: cell-based; conditions: PBMC, LPS-stimulated cytokine release from PBMCs
# Method: as §1
# [5] = LPS-stimulated cytokine release from PBMCs, read-out: TNF-α (IC50)
# [6] = less than or equal to about 50 μM, PBMCs, read-out: IC50, LPS-induced cytokine production (cytokine not specified)
SMILES,Mechanical Allodynia ΔWT (change from pre-dosing 50% withdrawal threshold) ([1]; 10 mg/kg IP),IC50 [2] [µM],Mechanical Allodynia ΔWT (change from pre-dosing 50% withdrawal threshold) ([1]; 20 mg/kg IP),"IC50 [3, 5] [µM]",IC50 [4] [µM],"IC50 [3, 6] [µM]"
"CC(C)c1nn2ccccc2c1C(NCC1CC1)C(C)C (stereo not drawn) [Compound 1048, N-(cyclopropylmethyl)-1-(2-isopropylpyrazolo[1,5-a]pyridin-3-yl)-2-methylpropan-1-amine hydrochloride]",0 grams,> 200,,,,
"CC(C)C(=NOC(N)=O)c1c(-c2ccc(Cl)cc2)nn2ccccc12 [Compound 1026, 1-(2-(4-chlorophenyl)pyrazolo[1,5-a]pyridin-3-yl)-2-methylpropan-1-one O-carbamoyl oxime]",1.14 grams,27.7,,,,
"CC(C)C(=O)c1c(C(C)(C)O)nn2ccccc12 [compound 1003, 1-(2-(2-hydroxypropan-2-yl)pyrazolo[1,5-a]pyridin-3-yl)-2-methylpropan-1-one]",0 grams,> 100,,,,
"CNC(C)C(=O)c1c(C(C)C)nn2ccccc12 (stereo not drawn) [Compound 1042, 1-(2-isopropylpyrazolo[1,5-a]pyridin-3-yl)-2-(methylamino)propan-1-one hydrochloride]",10 mg/kg: 0.37 grams,31.9,20 mg/kg: 0.22 grams,,,
"CC(C)c1nn2ccccc2c1C(=O)c1ncccc1Cl [Compound 1038, (3-chloropyridin-2-yl)(2-isopropylpyrazolo[1,5-a]pyridin-3-yl)methanone]",0.32 grams,26.4,,,,
"CC(C)C(=O)c1c(C(C)C)nn2ccccc12 [compound 411, 3-isobutyryl-2-isopropylpyrazolo[1,5-a]pyridine, reference compound]",2.31-3.53 grams,10.3,,5,17.9,
"CC(C)c1nn2ccccc2c1C(=O)CN [Compound 1009, 2-amino-1-(2-isopropylpyrazolo[1,5-a]pyridin-3-yl)ethanone]",1.15 grams,> 200,,25,99,≤ 50
"CC(C)C(=O)c1c(-c2ccccc2)nn2ccccc12 [Compound 1015, 2-methyl-1-(2-phenylpyrazolo[1,5-a]pyridin-3-yl)propan-1-one]",0.51 grams,80,,> 100,> 100,
"CC(C)c1nn2ccccc2c1C(NC1CC1)C(C)C (stereo not drawn) [Compound 1044, N-(1-(2-isopropylpyrazolo[1,5-a]pyridin-3-yl)-2-methylpropyl)cyclopropanamine]",0.08 grams,> 200,,,,
"CC(NC1CC1)C(=O)c1c(C(C)C)nn2ccccc12 (stereo not drawn) [Compound 1045, 2-(cyclopropylamino)-1-(2-isopropylpyrazolo[1,5-a]pyridin-3-yl)propan-1-one hydrochloride]",0 grams,61.1,,,,
"COc1ccc(-c2nn3ccccc3c2C(=NO)C(C)C)cc1 [Compound 1022, 1-(2-(4-methoxyphenyl)pyrazolo[1,5-a]pyridin-3-yl)-2-methylpropan-1-one oxime]",0 grams,23.9,,,,
"CC(C)c1nn2ccccc2c1C(=O)C(C)N1CCNCC1 (stereo not drawn) [Compound 1037, 1-(2-isopropylpyrazolo[1,5-a]pyridin-3-yl)-2-(piperazin-1-yl)propan-1-one hydrochloride]",0 grams,> 200,,,,
"CC(C)c1nn2ccccc2c1C(=O)C(C)N1CCOCC1 (stereo not drawn) [Compound 1034, 1-(2-isopropylpyrazolo[1,5-a]pyridin-3-yl)-2-morpholinopropan-1-one hydrochloride]",10 mg/kg: 1.71 grams,43.3,20 mg/kg: 0.54 grams,,,
"COc1ccc(-c2nn3ccccc3c2C(=NOC(N)=O)C(C)C)cc1 [Compound 1023, 1-(2-(4-methoxyphenyl)pyrazolo[1,5-a]pyridin-3-yl)-2-methylpropan-1-one O-carbamoyl oxime]",,156,,,,
"CC(C)c1nn2ccccc2c1C(=O)C(C)N(C)Cc1ccccc1 (stereo not drawn) [Compound 1041, 2-(benzyl(methyl)amino)-1-(2-isopropylpyrazolo[1,5-a]pyridin-3-yl)propan-1-one]",0.22 grams,21.5,,,,
"CC(C)C(=O)c1c(-c2ccc(Cl)cc2)nn2ccccc12 [Compound 1024, 1-(2-(4-chlorophenyl)pyrazolo[1,5-a]pyridin-3-yl)-2-methylpropan-1-one]",0.43 grams,18.2,,,,≤ 50
"CC(C)C(=NO)c1c(-c2ccc(Cl)cc2)nn2ccccc12 [Compound 1025, 1-(2-(4-chlorophenyl)pyrazolo[1,5-a]pyridin-3-yl)-2-methylpropan-1-one oxime]",0.81 grams,23,,,,
"COc1ccc(-c2nn3ccccc3c2C(=O)C(C)C)cc1 [Compound 1021, 1-(2-(4-methoxyphenyl)pyrazolo[1,5-a]pyridin-3-yl)-2-methylpropan-1-one]",0.45 grams,> 200,,,,
"CC(C)c1nn2ccccc2c1C(=O)C(C)N1CCN(C)CC1 (stereo not drawn) [Compound 1035, 1-(2-isopropylpyrazolo[1,5-a]pyridin-3-yl)-2-(4-methylpiperazin-1-yl)propan-1-one hydrochloride]",0 grams,198,,,,
"CC(C)c1nn2ccccc2c1C(=O)C(N)c1ccccc1 (stereo not drawn) [Compound 1039, 2-amino-1-(2-isopropylpyrazolo[1,5-a]pyridin-3-yl)-2-phenylethanone]",0.05 grams,8.2,,,,
"CC(C)c1nn2ccccc2c1C(=O)C(C)N1CCCCC1 (stereo not drawn) [Compound 1036, 1-(2-isopropylpyrazolo[1,5-a]pyridin-3-yl)-2-(piperidin-1-yl)propan-1-one hydrochloride]",0 grams,> 200,,,,
"COc1ccc2c(C(=O)C(C)C)c(C(C)C)nn2c1 [compound 1005, 1-(2-isopropyl-6-methoxypyrazolo[1,5-a]pyridin-3-yl)-2-methylpropan-1-one]",0.17 grams,59.5,,76,,
"CC(C)=Cc1c(C(C)C)nn2ccccc12 [compound 1049, 2-isopropyl-3-(2-methylprop-1-enyl)pyrazolo[1,5-a]pyridine]",0 grams,92.5,,,,
"CC(C)C(=NOC(N)=O)c1c(-c2ccccc2)nn2ccccc12 [Compound 1017, 2-methyl-1-(2-phenylpyrazolo[1,5-a]pyridin-3-yl)propan-1-one O-carbamoyl oxime]",0.91 grams,> 200,,,,
"CCC(=O)c1c(CC)nn2ccccc12 [Compound 1040, 1-(2-ethylpyrazolo[1,5-a]pyridin-3-yl)propan-1-one]",0.12 grams,27.1,,,,
